Results on 2 substances are retold here after patent publication US8765689B2, “Anti-ageing peptides modulating survivin and compositions including same” (ISP Investments Inc., priority 2010, dated 2014).

Test [1] concerns cellular fraction RA (enriched with epidermal adult stem cells). The test is described as follows: Comets test on cellular fraction RA after UVB irradiation. It counts as cell-based, human. To be noted: RA cells cultured 24 hours with peptide at 1%, then UVB 60 mJ/cm^2. The procedure: The comets test is a test that allows damage caused to DNA to be quantified at a cellular level.
To this end, in order to confirm the protective effect of a peptide compound according to the present invention, cells of the RA type were cultured for 24 hours with the peptide compound of sequence SEQ ID NO: 2 at a concentration of 1%, and then irradiated with
UVB radiation at 60 mJ/cm^2. […] The cells were then removed by trypsination from their carrier, and then centrifuged at 900 rpm for 5 minutes before being concentrated and counted.
A specific cell count (25,000 cells) was then incorporated into a 0.75% Low Melting agarose gel, and then deposited on a glass slide previously coated with 1% agarose. The slides were then immersed in a lysis solution for 1.5 hours at 4° C., and then in an alkaline solution for 20 minutes at 4° C. The cells were then lysed and the DNA denatured. The slides were immersed in an electrophoresis solution before applying an electric field (20 V-250 mA). The thus denatured DNA was subjected to migration within an agarose gel at 4° C. Applying a DNA fluorescent dye on the slides (2 μg/ml propidium iodide) allowed the DNA to be observed in the form of comets in those cases where it had been damaged.
Quantification software is used to determine the average Tail moment applied to each condition being tested. […]

The test system of another test is Keratin K19. The test is described as follows: Keratin K19 immunolabeling in UV-irradiated hair follicles maintained in culture. The class given is cell-based. The conditions noted are these: hair follicles treated with 1% peptide 24 hours before UV irradiation (UVA 5 J/cm, UVB 200 mJ/cm^2); image analysis. The procedure: The hair follicles were sampled from a biopsy using a scalpel and fine pliers, and then cultured in 24-well plates using William's E medium in the presence of antibiotics (0.2% Primocin), 10 μg/ml insulin, 10 ng/ml hydrocortisone and 2 mmol/L L-glutamine.
The follicles were either treated or not with the 1% peptide compound SEQ ID NO: 2 in Williams' medium and then incubated for 24 hours. UV irradiation was then applied (UVA: 5 J/cm, UVB 200 mJ/cm^2), and the follicles were then re-cultured for 24 hours. At the end of the experiment, the follicles were incorporated within OCT and frozen at −196° C. (liquid nitrogen). The follicles were then placed in a cryostat in order to prepare 6-μm sections at a temperature of −23° C. The slides containing the sections were placed in an acetone bath for 10 minutes (fixing) and then rinsed.
The fixed sections were rinsed once with PBS for 5 minutes, and then wrapped in Pappen. Each section was incubated with 5 μl 5%-BSA for 30 minutes. Then, 50 μl of primary anti-Cytokeratin K19 antibody (Progen, Mouse monoclonal) diluted to 1/50th were added and incubated for one hour with stirring in a humid chamber. After rinsing with PBS for 30 minutes, 50 μl of a fluorescence-labeled secondary antibody was added and left for one hour in the dark with stirring in a humid chamber. […]

For another test, the system named is Survivin protein. The test is described as follows: Survivin protein expression by Western Blotting on cultured cellular fractions RA and SA1. It counts as cell-based, human. To be noted: 48 hours, compound diluted to 3% (from a 10^-4 M solution). The method, then:
To investigate the role of the CPC proteins in the maintenance and protection of epidermal adult stem cells under various types of stress, several fractions of primary cells of human epidermis were prepared. Fractioning was carried out based on the adhesion time of cells to collagen IV: less than 20 minutes corresponds to fast adhesion (fraction RA), less than 5 hours, to slow adhesion No 1 (fraction SA1), less than 16 hours, to slow adhesion No 2 (fraction SA2), and lastly, non-adhering keratinocytes (fractions NA). […]
An investigation of the modulator effect of the peptide SEQ ID NO: 2 was conducted by evaluating the expression of the Survivin protein by Western Blotting on the cultured cellular fractions RA and SA1. The Western Blot technique is a conventional semi-quantitative method for assessing the proportion of proteins in cells.
Fractions RA and SA1 were grown in boxes 100 mm in diameter at 37° C. in a humidified atmosphere containing 5% CO2 for 48 hours with or without the compound, diluted to 3% (from a 10^−4 M solution). […] The quantitative evaluation of the proteins in the cells is performed using the Chemiimager software (Alpha Innotech Corporation USA). The amount of proteins is expressed as a percentage of the light intensity compared with that of the control conditions, under which no treatment has been received.

Test [2] has as its system RA and TOTAL keratinocytes. The test is described as follows: MITOSOX test (mitochondrial production of free radicals under H2O2 or UVB stress). To be noted: peptide at 1% and 3%, 48 hours, stress 5 mM H2O2 30 minutes or UVB 100 mJ/cm^2. It counts as cell-based, human. The source says: Mitosox is a reactant marketed by Invitrogen (molecular probes M36008). It is used during UV and H2O2 oxidative stress. It uses microscopic imaging to measure the mitochondrial production of free radicals (ROS) in cells. More particularly, Mitosox is specific to the superoxide anion, which is the predominant form of ROS.
Mitosox is applied to living cells: it permeates the membrane and once inside the cell, diffuses rapidly and specifically within the mitochondria. Once in the mitochondria, Mitosox is oxidized by the superoxide anion into a compound which provides red fluorescence. This reactant is easily oxidized by the superoxide anion but not by other free radicals, nor by reactive species of nitrogen (NOS).
RA and TOTAL keratinocytes (where TOTAL denotes an entire cellular fraction) were treated three times per day with the peptide compound of SEQ ID NO: 3 at concentrations of 1% and 3%, for 48 hours.
In a second step, the cells were placed under stress, caused: • either by exposure to 5 mM H2O2 solution for 30 minutes; • or by UVB radiation at 100 mJ/cm^2.
After stress application, the cells were rinsed and then returned into a suitable medium for one hour at 37° C. in a culture incubator. […] The results were read using fluorescence microscopy.

Ends that are not written are not given here.

In the case of “Arg-Glu-Met-Asn-Trp-NH2 (REMNW-NH2) [SEQ ID NO: 2]”, the “Tail Moment decrease vs UVB control” value in test [1] was determined as 44.7%. Besides, in the test on Keratin K19, the “fluorescent values of Keratin K19” value is reported as “+102.7%”. For the same substance, the “expression of the Survivin protein” value in the test on Survivin protein (fraction RA (very rich in epidermal adult stem cells)) and with Survivin protein (fraction SA1 (less rich in epidermal adult stem cells)) was “increased” each time.

DAREMNWDT [SEQ ID NO: 3]: the “number of fluorescent cells (Mitosox, free radical production)” value in test [2] was “extremely low”.
